From patent US9012200B2, “Composition of bacterial strains, bioremediation mixture and use of this composition for the removal of contaminants from the soil and the method for purifying the soil contaminants” (priority 2012, dated 2015)
Like-named read-outs stand apart in the source and are kept apart here.

Assays:
[1] = tested on: Stenotrophomonas sp. strain 6L; assay type: cell-based
[2] = tested on: Stenotrophomonas sp. strain 5L; assay type: cell-based
[3] = tested on: Brevundimonas sp. strain 2N; assay type: cell-based
[4] = tested on: Pseudomonas sp. strain 4G; assay type: cell-based
[5] = tested on: Stenotrophomonas sp. strain 3N; assay type: cell-based
[6] = tested on: Arthrobacter sp. strain 1N; assay type: cell-based
[7] = tested on: Pseudomonas sp. strain 3G; assay type: cell-based
[8] = tested on: model strain Escherichia coli; details: according to Spain, 2003; cited from earlier work
[9] = tested on: Brevundimonas sp. strain 6N; assay type: cell-based
[10] = tested on: Achromobacter sp. strain 4P; assay type: cell-based
[11] = tested on: investigated strains of bacteria; assay type: cell-based
[12] = tested on: Brevundimonas sp. strain 5N; assay type: cell-based
[13] = tested on: Stenotrophomonas sp. strain 2L; assay type: cell-based

| SMILES | MIC threshold values of heavy metals [1] | MIC threshold values of heavy metals [2] | MIC threshold values of heavy metals [3] | MIC threshold values of heavy metals ([4]; 24 h) [mM/L] | MIC threshold values of heavy metals [5] | MIC threshold values of heavy metals [6] [mM/L] | MIC threshold values of heavy metals ([7]; 24 h) [mM/L] | MIC [8] [mM/L] | MIC threshold values of heavy metals [9] | MIC threshold values of heavy metals [10] | Susceptibility of the investigated strains to the heavy metal [11] | MIC threshold values of heavy metals [12] | MIC threshold values of heavy metals [13] | also measured |
| --- | --- | --- | --- | --- | --- | --- | --- | --- | --- | --- | --- | --- | --- | --- |
| O=S(=O)([O-])[O-].[Cd+2] [Cd(II), Cadmium sulphate] | 0.1 mM/L | 0.1 mM/L | 0.1 mM/L | 0.1 | 0.1 mM/L | 0.1 | 0.1 | 0.5 | 0.1 mM/L | 0.1(0.2) mM/L | susceptible | 0.1(0.2) mM/L | 0.1 mM/L | Growth of the strains in the presence of the metal salt [11]: None of the investigated strains was able to grow |
| [Cl][Ni][Cl] [Ni(II), Nickel chloride] | – | – | – | 1 | – | – | 1 | 1 | – | – | – | – | – | MIC threshold values of heavy metals ([1]; strain 6L, 24 h): 1 mM/L; MIC threshold values of heavy metals ([1]; strain 6L, 48 h): 2 mM/L; MIC threshold values of heavy metals ([2]; strain 5L, 24 h): 1 mM/L; MIC threshold values of heavy metals ([3]; strain 2N, 24 h): 1 mM/L; MIC threshold values of heavy metals ([3]; strain 2N, 48 h): 2 mM/L; MIC threshold values of heavy metals ([4]; 48 h): 2 mM/L; MIC threshold values of heavy metals ([5]; strain 3N, 24 h): 1 mM/L; MIC threshold values of heavy metals ([5]; strain 3N, 48 h): 2 mM/L; MIC threshold values of heavy metals ([6]; strain 1N, 24 h): 1 mM/L; MIC threshold values of heavy metals ([6]; strain 1N, 48 h): 2 mM/L; MIC threshold values of heavy metals ([7]; 48 h): 2 mM/L; MIC threshold values of heavy metals ([9]; strain 6N, 24 h): 1 mM/L; MIC threshold values of heavy metals ([9]; strain 6N, 48 h): 2 mM/L; MIC threshold values of heavy metals ([10]; strain 4P, 24 h): 1 mM/L; Susceptibility of the investigated strains to the heavy metal ([11]; compared with literature data for the model strain): semi-susceptible; MIC threshold values of heavy metals ([12]; strain 5N, 24 h): 1 mM/L; MIC threshold values of heavy metals ([13]; strain 2L, 24 h): 1 mM/L |
| O=S(=O)([O-])[O-].[Zn+2] [Zn(II), Zinc sulphate] | 4(5) mM/L | 4(5) mM/L | 3(4) mM/L | 4 | 3(4) mM/L | 4 | 4 | 1 | 2(3) mM/L | 3(5) mM/L | resistant | 2(4) mM/L | 3(4) mM/L | – |
